Patent US9932335B2 (priority 2013, dated 2018)
Changes are numbered by the printed parent chain. Read-outs that look alike come from different tables or passages of the source.

Key:
M1 receptor = molecular target: T1, M1 receptor (Rattus norvegicus, UniProt P08482); assay: M1 PAM assay (FLIPR intracellular calcium), rat; type: cell-based
T1 construct: expressed in transfected cells
T1 sequence (P08482 1-460): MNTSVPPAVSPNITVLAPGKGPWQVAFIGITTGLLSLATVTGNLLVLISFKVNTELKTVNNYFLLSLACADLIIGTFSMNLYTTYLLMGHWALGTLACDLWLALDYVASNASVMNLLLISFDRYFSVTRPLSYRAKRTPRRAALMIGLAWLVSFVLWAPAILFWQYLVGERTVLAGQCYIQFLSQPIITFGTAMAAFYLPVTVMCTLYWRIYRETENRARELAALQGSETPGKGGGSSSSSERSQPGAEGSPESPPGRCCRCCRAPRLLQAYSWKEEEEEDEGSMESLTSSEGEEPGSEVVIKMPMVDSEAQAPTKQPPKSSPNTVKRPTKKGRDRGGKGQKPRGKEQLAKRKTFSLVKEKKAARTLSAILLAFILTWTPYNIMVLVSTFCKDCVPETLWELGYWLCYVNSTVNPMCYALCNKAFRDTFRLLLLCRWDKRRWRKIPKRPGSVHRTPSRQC

human M1 = molecular target: T2, human M1 (Homo sapiens, UniProt P11229); assay: M1 PAM assay (FLIPR intracellular calcium, CHO human M1); type: cell-based
T2 construct: expressed in transfected cells; host or cells: CHO cells
T2 sequence (P11229 1-460): T1 sequence (P08482 1-460) with V5A, S254T, S309P, K320R, G337A, V413I
Method: The assay study the effect of several concentrations of test compounds on basal or acetylcholine-stimulated Ca^2+ levels using FLIPR. CHO human M1 are plated the day before the experiments at 2×10^5 cells/ml in PDL BioCoat 96 well black/clear plate (Becton 35 4640). The cells are grown at 37° C. and 5% CO2 in the following medium: F12 Nut Mix (Gibco 21765), 10% FCS heat inactivated (GIBCO 16000-044), 1% Pen Strep (Gibco, 15140) and 200 μg/ml Geneticin (Gibco 11811). On the day of the experiment, the medium was removed and replaced by 100 μl of dye loading buffer containing Hanks Balanced Salt solution (HBSS, 14065-049, Gibco) with 20 mM HEPES (Gibco 15630-056), 2 mM Probenicid (Sigma P8761), […] (Molecular Probes F-14202), 10% Pluronic acid Molecular Probes P-3000) pH=7.4 and incubated at 37° C. After 60 minutes extracellular dye was removed and the cells were washed five times with FLIPR buffer containing HBSS (Gibco 14065-049) with 20 mM HEPES (Gibco, 15630-056), 2 mM Probenicid (Sigma P8761) pre-warmed at 37° C. using and Ebml cell washer leaving 100 μl of FLIPR buffer in each well. The cell plate and the diluted compounds (1% DMSO final concentration) are placed on the platform of the FLIPR and the door closed. A signal test to check background fluorescence and basal fluorescence signal is performed. Laser intensity is adjusted if necessary. Two minutes preincubation with the diluted test compounds is provide to determine any agonist activity on the M1 receptor by comparison to 30 nM Acetylcholine control. In order to determine any modulator activity the diluted compounds were added to cells and after two minutes preincubation, the EC20 of acetylcholine is added followed by another two minutes preincubation before the measurement of intracellular Ca^2+ with a FLIPR (Molecular Devices).

[1] = rat, modulator activity with EC20 of acetylcholine, FLIPR Ca2+, read-out: EC50 rat PAM
[2] = human M1 in CHO cells, modulator activity with EC20 of acetylcholine, FLIPR Ca2+, read-out: EC50 h PAM

Row | SMILES | EC50 (M1 receptor; [1]) | EC50 (human M1; [2]) | EC50 (M1 receptor) | EC50 (human M1)
1 | Cn1cc(-c2ccc(Cn3cc(C(=O)N[C@H](CO)C(C)(C)C)c4ncccc43)c(F)c2)cn1 [Example 27, 1-[2-Fluoro-4-(1-methyl-1H-pyrazol-4-yl)-benzyl]-1H-pyrrolo[3,2-b]pyridine-3-carboxylic acid ((S)-1-hydroxymethyl-2,2-dimethyl-propyl)-amide] | 0.355 µM | 0.126 µM | – | –
2 | Cn1cc(-c2ccc(Cn3cc(C(=O)NC4CCCCC4)c4ncccc43)c(F)c2)cn1 [Example 28, N-cyclohexyl-1-(2-fluoro-4-(1-methyl-1H-pyrazol-4-yl)benzyl)-1H-pyrrolo[3,2-b]pyridine-3-carboxamide] | – | – | 0.521 µM | 0.283 µM
3 | Cn1cc(-c2ccc(Cn3cc(C(=O)Nc4ncccc4CO)c4ncccc43)c(F)c2)cn1 [Example 30, 1-[2-Fluoro-4-(1-methyl-1H-pyrazol-4-yl)-benzyl]-1H-pyrrolo[3,2-b]pyridine-3-carboxylic acid (3-hydroxymethyl-pyridin-2-yl)-amide] | – | – | 0.21 µM | 0.0824 µM
4 | Cn1cc(-c2ccc(Cn3cc(C(=O)N[C@H](CO)c4ccccc4)c4ncccc43)c(F)c2)cn1 [Example 32, 1-[2-Fluoro-4-(1-methyl-1H-pyrazol-4-yl)-benzyl]-1H-pyrrolo[3,2-b]pyridine-3-carboxylic acid ((S)-2-hydroxy-1-phenyl-ethyl)-amide] | – | – | 0.277 µM | 0.0887 µM
5 | Cn1cc(-c2ccc(Cn3cc(C(=O)NC[C@@H](O)c4ccccc4)c4ncccc43)c(F)c2)cn1 [Example 34, 1-[2-Fluoro-4-(1-methyl-1H-pyrazol-4-yl)-benzyl]-1H-pyrrolo[3,2-b]pyridine-3-carboxylic acid ((S)-2-hydroxy-2-phenyl-ethyl)-amide] | 0.494 µM | 0.12 µM | – | –
6 | Cn1cc(-c2ccc(Cn3cc(C(=O)Nc4ncccc4O)c4ncccc43)c(F)c2)cn1 [Example 36, 1-[2-Fluoro-4-(1-methyl-1H-pyrazol-4-yl)-benzyl]-1H-pyrrolo[3,2-b]pyridine-3-carboxylic acid (3-hydroxy-pyridin-2-yl)-amide] | 0.314 µM | 0.109 µM | – | –
7 | Cn1cc(-c2ccc(Cn3cc(C(=O)N[C@H]4COCC[C@@H]4O)c4ncccc43)c(F)c2)cn1 [Example 41, 1-[[2-fluoro-4-(1-methylpyrazol-4-yl)phenyl]methyl]-N-[(3S,4S)-4-hydroxyoxan-3-yl]pyrrolo[3,2-b]pyridine-3-carboxamide] | 0.051 µM | 0.0304 µM | – | –
8 | Cc1ccc(Cn2cc(C(=O)N[C@H]3CCCC[C@@H]3O)c3ncccc32)cc1 [Example 43, N-((1S,2S)-2-hydroxycyclohexyl)-1-(4-methylbenzyl)-1H-pyrrolo[3,2-b]pyridine-3-carboxamide] | – | – | 0.611 µM | 0.207 µM
9 | COc1ccc(Cn2cc(C(=O)N[C@H]3CCCC[C@@H]3O)c3ncccc32)cc1F [Example 44, 1-(3-fluoro-4-methoxybenzyl)-N-((1S,2S)-2-hydroxycyclohexyl)-1H-pyrrolo[3,2-b]pyridine-3-carboxamide] | – | – | 0.598 µM | 0.127 µM
10 | Cc1ccc(Cn2cc(C(=O)N[C@H]3CCCC[C@@H]3O)c3ncccc32)cc1F [Example 46, 1-(3-fluoro-4-methylbenzyl)-N-((1S,2S)-2-hydroxycyclohexyl)-1H-pyrrolo[3,2-b]pyridine-3-carboxamide] | – | – | 0.444 µM | 0.257 µM
11 | COc1ccc(Cn2cc(C(=O)N[C@H]3CCCC[C@@H]3O)c3ncccc32)cc1 [Example 47, N-((1S,2S)-2-hydroxycyclohexyl)-1-(4-methoxybenzyl)-1H-pyrrolo[3,2-b]pyridine-3-carboxamide] | – | – | 0.217 µM | 0.163 µM
12 | O=C(N[C@H]1CCCC[C@@H]1O)c1cn(Cc2ccc(C(F)(F)F)nc2)c2cccnc12 [Example 48, N-((1S,2S)-2-hydroxycyclohexyl)-1-((6-(trifluoromethyl)pyridin-3-yl)methyl)-1H-pyrrolo[3,2-b]pyridine-3-carboxamide] | – | – | 0.422 µM | 1.77 µM
13 | O=C(N[C@H]1CCCC[C@@H]1O)c1cn(Cc2ccc(-c3ccccc3)cc2)c2cccnc12 [Example 49, 1-(biphenyl-4-ylmethyl)-N-((1S,2S)-2-hydroxycyclohexyl)-1H-pyrrolo[3,2-b]pyridine-3-carboxamide] | – | – | 0.512 µM | 0.3 µM
14 | Cn1ncc2cc(Cn3cc(C(=O)N[C@H]4CCCC[C@@H]4O)c4ncccc43)ccc21 [Example 52, N-((1S,2S)-2-hydroxycyclohexyl)-1-((1-methyl-1H-indazol-5-yl)methyl)-1H-pyrrolo[3,2-b]pyridine-3-carboxamide] | – | – | 0.163 µM | 0.0715 µM
15 | Cn1cc(-c2ccc(Cn3cc(C(=O)N[C@H]4CCCC[C@@H]4O)c4ncccc43)cc2)cn1 [Example 55, N-((1S,2S)-2-hydroxycyclohexyl)-1-(4-(1-methyl-1H-pyrazol-4-yl)benzyl)-1H-pyrrolo[3,2-b]pyridine-3-carboxamide] | – | – | 0.0139 µM | 0.0111 µM
16 | Cn1cc(-c2ccc(Cn3cc(C(=O)N[C@H]4CCCC[C@@H]4O)c4ncccc43)cn2)cn1 [Example 56, N-((1S,2S)-2-hydroxycyclohexyl)-1-((6-(1-methyl-1H-pyrazol-4-yl)pyridin-3-yl)methyl)-1H-pyrrolo[3,2-b]pyridine-3-carboxamide] | – | – | 0.071 µM | 0.0349 µM
17 | O=C(N[C@H]1CCCC[C@@H]1O)c1cn(Cc2ccc(-c3nccs3)cc2)c2cccnc12 [Example 60, N-((1S,2S)-2-hydroxycyclohexyl)-1-(4-(thiazol-2-yl)benzyl)-1H-pyrrolo[3,2-b]pyridine-3-carboxamide] | – | – | 0.126 µM | 0.0382 µM
18 | CNC(=O)c1ccc(Cn2cc(C(=O)N[C@H]3CCCC[C@@H]3O)c3ncccc32)cc1 [Example 61, N-((1S,2S)-2-hydroxycyclohexyl)-1-(4-(methylcarbamoyl)benzyl)-1H-pyrrolo[3,2-b]pyridine-3-carboxamide] | – | – | 0.018 µM | 0.0091 µM
19 | O=C(NC1CCOCC1)c1cn(Cc2ccc3[nH]ncc3c2)c2cccnc12 [Example 62] | – | – | 0.325 µM | 0.428 µM
20 | Cn1cc(-c2ccc(Cn3cc(C(=O)NCc4cccnc4)c4ncccc43)c(F)c2)cn1 [Example 64] | – | – | 1.06 µM | 0.261 µM
21 | Cn1cc(-c2ccc(Cn3cc(C(=O)NCC4(O)CC4)c4ncccc43)c(F)c2)cn1 [Example 65, 1-(2-fluoro-4-(1-methyl-1H-pyrazol-4-yl)benzyl)-N-((1-hydroxycyclopropyl)methyl)-1H-pyrrolo[3,2-b]pyridine-3-carboxamide] | 1.39 µM | 0.315 µM | – | –
